From patent US20190262291A1, “METHODS AND COMPOSITIONS FOR ALLEVIATING MYOPATHY” (priority 2016, published 2019)
Like-named read-outs stand apart in the source and are kept apart here.

Legend:
[1] = NOAEL for HMB oral ingestion in rats (Baxter et al.); assay type: in vivo, rat; settings: for estimated human equivalent dose of rat NOAEL: in vivo, oral; for estimated human equivalent of NOAEL as total amount: assuming a body weight of 150 lbs
Method: This is an estimated human equivalent of 558 mg/kg and 665 mg/kg for men and women, respectively; assuming a body weight of 150 lbs equates to 38 g (males) and 45 g (females). […] Overall, standard doses of HMB appear to be well-tolerated over long periods of time.

[2] = test system: patients with statin-induced myopathy (SIM); experiment: Example 1: HMB and leucic acid combination therapy in patients with statin-induced myopathy; assay type: in vivo, human; settings: two patients with SIM on statin, summary
Method: The effects of combined administration of HMB and leucic acid was studied in two patients with statin-induced myopathy (SIM). Both patients enrolled were under the care of a board certified cardiologist. […] person with a history of PCI/coronary stent ramus intermedius; historically statin intolerant lipid disorder with LDL=168, total cholesterol=281, with triglycerides=316 on a hypolipidemic regimen of Welchol, 6 tabs/d (for a total of 1500-3000 mg/d) and Zetia, 10 mg/d; unable to achieve goal (i.e., LDL cholesterol <100 mg % in patients with coronary risk factors and <70 mg % in coronary patients (with previous myocardial infarction (MI), percutaneous coronary intervention (PCI), or coronary bypass surgery) as well as patients with peripheral vascular disease and diabetics) off statins and therefore begun on Vytorin, 10/40 mg daily+3-hydroxy 3-methyl butyrate (HMB) at 2 grams BID. […] person with angiographic small vessel disease; type 2 diabetes and type 2a hyperlipidemia; history of statin intolerance with myalgia, weakness and severely elevated CPKs (900-1000 range, normal 200); patient therefore treated with Welchol 6 grams/d and Zetia 10 mg/d with an LDL=185 on this regimen. The patient was subsequently placed on Crestor 20 mg/d+HMB 2 grams BID with a drop in LDL=49 and improved CPK levels (300-400 range).

rats = settings: oral ingestion, cited from earlier work
Human = settings: cited from earlier work
[3] = in vivo; cited from earlier work
[4] = towards oxygenation in humans; cited from earlier work

Row | Compound | estimated human equivalent dose of rat NOAEL ([1]; female, women) [mg/kg] | estimated human equivalent of NOAEL as total amount ([1]; females) [g] | estimated human equivalent dose of rat NOAEL ([1]; male, men) [mg/kg] | estimated human equivalent of NOAEL as total amount ([1]; males) [g] | resolution of SIM [2] | No Observed Adverse Effect Level (NOAEL) (rats; female rats) [mg/kg] | No Observed Adverse Effect Level (NOAEL) (rats; male rats) [mg/kg] | toxicological parameters in serum (Human; 3 g HMB daily for up to 8 weeks, youth and older persons) | safety of long-term administration (Human; 3 g daily, one year of administration) | toxic effects on serum parameters (Human; approximately 6 g HMB daily (78 mg/kg) for one month, untrained young males subject to exercise) | basophils (Human; half the dose (of approximately 6 g daily), considered to be insignificant) | tolerability (Human; standard doses over long periods of time) | half-lives [3] | time to reach peak levels [3] | reaction half time [4] [min]
1 | CC(C)(O)CC(=O)O [HMB, β-hydroxy β-methylbutyrate] | 665 | 45 | 558 | 38 | incomplete resolution of SIM | 4160 | 3490 | failed to alter toxicological parameters in serum | safe | did not show any toxic effects | spontaneous increase in basophils | well-tolerated | relatively short | quickly | –
2 | CC(C)CC(O)C(=O)O (centres unmarked) [leucic acid, 2-hydroxy-4-methylpentanoic acid] | – | – | – | – | – | – | – | – | – | – | – | – | relatively short | quickly | 230
